Measurements from publication PMC11012124, “Synthesis of Novel Triazine-Based Chalcones and 8,9-dihydro-7H-pyrimido[4,5-b][1,4]diazepines as Potential Leads in the Search of Anticancer, Antibacterial and Antifungal Agents” (International Journal of Molecular Sciences, 2024).

Tests used:
SK-MEL-2 = assay: cells; conditions: Homo sapiens, SK-MEL-2, 48 h; for CC50: read-out: LC50
MALME-3M = assay: cells; conditions: Homo sapiens, 48 h
OVCAR-5 = assay: cells; conditions: Homo sapiens, OVCAR-5, 48 h; for CC50: read-out: LC50
HCT-116 = assay: cells; conditions: Homo sapiens, HCT-116, 48 h
UO-31 = assay: cells; conditions: Homo sapiens, UO-31, 48 h
SK-MEL-28 = assay: cells; conditions: Homo sapiens, SK-MEL-28, 48 h; for CC50: read-out: LC50
SNB-19 = assay: cells; conditions: Homo sapiens, SNB-19, 48 h; for CC50: read-out: LC50
ACHN = assay: cells; conditions: Homo sapiens, 48 h
SF-268 = assay: cells; conditions: Homo sapiens, SF-268, 48 h
NCI-H322M = assay: cells; conditions: Homo sapiens, 48 h; for CC50: read-out: LC50
SNB-75 = assay: cells; conditions: Homo sapiens, SNB-75, 48 h; for CC50: read-out: LC50
U251 = assay: cells; conditions: Homo sapiens, U-251, 48 h; for GI50: U251, 48 h
OVCAR-8 = assay: cells; conditions: Homo sapiens, OVCAR-8, 48 h
RPMI-8226 = assay: cells; conditions: Homo sapiens, RPMI-8226, 48 h; for CC50: read-out: LC50
IGROV1 = assay: cells; conditions: Homo sapiens, IGROV-1, 48 h; for CC50: read-out: LC50
HOP-62 = assay: cells; conditions: Homo sapiens, HOP-62, 48 h; for CC50: read-out: LC50
HL-60(TB) = assay: cells; conditions: Homo sapiens, HL-60, 48 h; for CC50: read-out: LC50
SF-295 = assay: cells; conditions: Homo sapiens, SF-295, 48 h; for CC50: read-out: LC50
A549/ATCC = assay: cells; conditions: Homo sapiens, A549, 48 h; for CC50: read-out: LC50
NCI-H226 = assay: cells; conditions: Homo sapiens, NCI-H226, 48 h; for CC50: read-out: LC50
EKVX = assay: cells; conditions: Homo sapiens, 48 h; for CC50: read-out: LC50
BT-549 = assay: cells; conditions: Homo sapiens, BT-549, 48 h
SN12C = assay: cells; conditions: Homo sapiens, 48 h; for CC50: read-out: LC50
NCI-H460 = assay: cells; conditions: Homo sapiens, NCI-H460, 48 h; for CC50: read-out: LC50
KM12 = assay: cells; conditions: Homo sapiens, KM12, 48 h
COLO 205 = assay: cells; conditions: Homo sapiens, COLO 205, 48 h; for CC50: read-out: LC50
UACC-257 = assay: cells; conditions: Homo sapiens, UACC-257, 48 h; for CC50: read-out: LC50
M14 = assay: cells; conditions: Homo sapiens, M14, 48 h; for CC50: read-out: LC50
CCRF-CEM = assay: cells; conditions: Homo sapiens, 48 h; for CC50: read-out: LC50
786-0 = assay: cells; conditions: Homo sapiens, 786-0, 48 h; for CC50: read-out: LC50
OVCAR-4 = assay: cells; conditions: Homo sapiens, OVCAR-4, 48 h; for CC50: read-out: LC50
MDA-MB-435 = assay: cells; conditions: Homo sapiens, MDA-MB-435, 48 h; for CC50: read-out: LC50
SW-620 = assay: cells; conditions: Homo sapiens, SW-620, 48 h; for CC50: read-out: LC50
SK-MEL-5 = assay: cells; conditions: Homo sapiens, SK-MEL-5, 48 h
60 cancer cell lines = assay: NCI-60 one-dose screen (10 μM); assay type: cell-based; conditions: Homo sapiens; one dose of 10 μM, mean over 60 cancer cell lines; read-out: Mean Growth Percent (MGP)
Excerpt: Additionally, the mean of the growth percentages (MGP) of each compound against all the 60 cancer cell lines is also reported, which is used as one of the selection criteria to continue with tests at five concentration doses.

HCT-15 = assay: cells; conditions: Homo sapiens, HCT-15, 48 h; for CC50: read-out: LC50

COc1cc(/C=C/C(=O)c2ccc(C)cc2)ccc1Oc1nc(NCCO)nc(N2CCOCC2)n1 [20b]
GI50 (SK-MEL-2): 8.17 µM
CC50 (SK-MEL-2): > 100 µM
GI50 (MALME-3M): 2.29 µM
CC50 (MALME-3M; read-out: LC50): > 100 µM
GI50 (OVCAR-5): 3.22 µM
CC50 (OVCAR-5): > 100 µM
GI50 (HCT-116): 1.73 µM
GI50 (UO-31): 1.49 µM
GI50 (SK-MEL-28): 2.5 µM
CC50 (SK-MEL-28): > 100 µM
GI50 (SNB-19): 2.45 µM
CC50 (SNB-19): > 100 µM
GI50 (ACHN): 1.94 µM
GI50 (SF-268): 2.9 µM
CC50 (SF-268; read-out: LC50): > 100 µM
GI50 (NCI-H322M): 6.24 µM
CC50 (NCI-H322M): > 100 µM
GI50 (SNB-75): > 100 µM
CC50 (SNB-75): > 100 µM
GI50 (U251): 1.62 µM
GI50 (OVCAR-8): 1.76 µM
GI50 (RPMI-8226): 1.72 µM
CC50 (RPMI-8226): > 100 µM
GI50 (IGROV1): 3.1 µM
CC50 (IGROV1): > 100 µM
GI50 (HOP-62): 16.6 µM
CC50 (HOP-62): > 100 µM
GI50 (HL-60(TB)): 2.07 µM
CC50 (HL-60(TB)): > 100 µM
CC50 (SF-295): > 100 µM
GI50 (A549/ATCC): 9.47 µM
CC50 (A549/ATCC): > 100 µM
GI50 (NCI-H226): 6.28 µM
CC50 (NCI-H226): > 100 µM
GI50 (EKVX): 3.9 µM
CC50 (EKVX): > 100 µM
GI50 (BT-549): 1.62 µM
GI50 (SN12C): 2.35 µM
CC50 (SN12C): > 100 µM
GI50 (NCI-H460): 2.2 µM
CC50 (NCI-H460): > 100 µM
GI50 (KM12): 1.85 µM
GI50 (COLO 205): 2.64 µM
CC50 (COLO 205): > 100 µM
GI50 (UACC-257): 3.98 µM
CC50 (UACC-257): > 100 µM
GI50 (M14): 2.03 µM
CC50 (M14): > 100 µM
GI50 (CCRF-CEM): 2.71 µM
CC50 (CCRF-CEM): > 100 µM
GI50 (786-0): 2.18 µM
CC50 (786-0): > 100 µM
GI50 (OVCAR-4): 3.92 µM
CC50 (OVCAR-4): > 100 µM
GI50 (MDA-MB-435): 3.31 µM
CC50 (MDA-MB-435): > 100 µM
GI50 (SW-620): 1.64 µM
CC50 (SW-620): > 100 µM
GI50 (SK-MEL-5): 2 µM
activity at 10 µM (60 cancer cell lines): 48.9%
GI50 (HCT-15): 1.78 µM
CC50 (HCT-15): > 100 µM

Nc1nc(N)c2c(n1)NC(c1ccccc1)CC(c1ccc(Nc3nc(NCCO)nc(Nc4ccc(Cl)cc4)n3)cc1)=N2 (centres unmarked) [33a]
GI50 (SK-MEL-2): 1.38 µM
CC50 (SK-MEL-2): 5.6 µM
GI50 (MALME-3M): 1.76 µM
GI50 (OVCAR-5): 1.94 µM
CC50 (OVCAR-5): 7.25 µM
GI50 (HCT-116): 1.51 µM
CC50 (HCT-116; read-out: LC50): 5.33 µM
GI50 (UO-31): 1.87 µM
CC50 (UO-31; read-out: LC50): 9.83 µM
GI50 (SK-MEL-28): 1.73 µM
CC50 (SK-MEL-28): 5.64 µM
GI50 (SNB-19): 1.58 µM
CC50 (SNB-19): 5.64 µM
GI50 (ACHN): 1.95 µM
CC50 (ACHN; read-out: LC50): 9.76 µM
GI50 (SF-268): 1.87 µM
GI50 (NCI-H322M): 1.63 µM
CC50 (NCI-H322M): 5.67 µM
GI50 (SNB-75): 1.56 µM
CC50 (SNB-75): 6.29 µM
GI50 (U251): 1.53 µM
CC50 (U251; read-out: LC50): 5.84 µM
GI50 (OVCAR-8): 1.46 µM
CC50 (OVCAR-8; read-out: LC50): 6.59 µM
GI50 (RPMI-8226): 1.38 µM
CC50 (RPMI-8226): > 100 µM
GI50 (IGROV1): 1.56 µM
CC50 (IGROV1): 6.29 µM
GI50 (HOP-62): 1.74 µM
CC50 (HOP-62): 6.07 µM
GI50 (HL-60(TB)): 0.32 µM
CC50 (HL-60(TB)): > 100 µM
GI50 (SF-295): 1.57 µM
CC50 (SF-295): 5.63 µM
GI50 (A549/ATCC): 2.84 µM
CC50 (A549/ATCC): > 100 µM
GI50 (NCI-H226): 11.5 µM
CC50 (NCI-H226): 85 µM
GI50 (EKVX): 1.64 µM
CC50 (EKVX): 6.12 µM
GI50 (BT-549): 1.77 µM
CC50 (BT-549; read-out: LC50): 5.81 µM
GI50 (SN12C): 1.74 µM
CC50 (SN12C): 7.2 µM
GI50 (NCI-H460): 1.85 µM
CC50 (NCI-H460): 6.51 µM
GI50 (KM12): 1.9 µM
CC50 (KM12; read-out: LC50): 6.61 µM
GI50 (COLO 205): 1.79 µM
CC50 (COLO 205): 6.09 µM
GI50 (UACC-257): 1.9 µM
CC50 (UACC-257): 6.43 µM
GI50 (M14): 1.84 µM
CC50 (M14): 6.1 µM
GI50 (CCRF-CEM): 0.95 µM
CC50 (CCRF-CEM): > 100 µM
GI50 (786-0): 1.63 µM
CC50 (786-0): 5.8 µM
GI50 (OVCAR-4): 1.72 µM
CC50 (OVCAR-4): 8.19 µM
GI50 (MDA-MB-435): 1.74 µM
CC50 (MDA-MB-435): 5.78 µM
GI50 (SW-620): 1.87 µM
CC50 (SW-620): 6.48 µM
GI50 (SK-MEL-5): 1.42 µM
CC50 (SK-MEL-5; read-out: LC50): 5.21 µM
activity at 10 µM (60 cancer cell lines): 25.3%
GI50 (HCT-15): 1.38 µM
CC50 (HCT-15): 5.87 µM
